Holding throughout (type): cell-based
Assay [1] concerns three test fungi. As to the kind of experiment: Fungistatical effect of β-cyclodextrin, morphology and surfacial cultures. Conditions: surfacial cultures. As to the method: (§1) Agar nutrient media comprising 0.1-0.2 -0.5-1.0-2.0-5.0-10.0-20.0-100.0- 200.0-400.0-800.0-1200.0-1500.0-2000.0-3000.0 μg β-cyclodextrin/ml, respectively, are prepared in Petri-dishes. Mycelium discs are cut out from surface cultures of three test fungi and are placed onto the agar nutrient media in the Petri-dishes. Incubation is carried out in a thermostate whereupon the increase of the diameter of the colonies is determined and compared to that of the control. The morphology of the colonies and the diffusion of the dye-substance produced by the fungi into the nutrient medium are evaluated as well.
(§2) The fungistatical effect of cyclodextrin manifests itself in the changed morphology, structure and color of the colonies and in the amount of the dyestuff penetrated into the nutrient medium. However at higher dose range the effect of cyclodextrin is already of a quantitative nature, thus the decrease of the diameter of the colonies can be measured and the amount of the biomass formed is reduced to a rate which can be evaluated (Table 1).

Assay [2] concerns Alternaria tenuis. As to the kind of experiment: Fungistatical effect of β-cyclodextrin (agar, colony diameter). Conditions: Alternaria alternata. The procedure:
(§3) The fungistatical activity of cyclodextrins has never been disclosed in prior art.
as §1, §2

The test system of assay [3] is Rhizoctonia solani. Described as above. As to the method:
as §3, §1, §2

Assay [4] has as its system Sclerotinia sclerotiorum. The description is as above. The procedure:
as §3, §1, §2

Data on one compound can be found in patent US4923853A, “Process for enhancing the activity of plant protecting agents by using cyclodextrin” (Chinoin Gyogyszer Es Vegyeszeti Termekek Gyara R.T., priority 1985, dated 1990).

Molecules are shown by their SMILES.

On to `OC[C@H]1O[C@@H]2O[C@H]3[C@H](O)[C@@H](O)[C@@H](O[C@H]4[C@H](O)[C@@H](O)[C@@H](O[C@H]5[C@H](O)[C@@H](O)[C@@H](O[C@H]6[C@H](O)[C@@H](O)[C@@H](O[C@H]7[C@H](O)[C@@H](O)[C@@H](O[C@H]8[C@H](O)[C@@H](O)[C@@H](O[C@H]1[C@H](O)[C@H]2O)O[C@@H]8CO)O[C@@H]7CO)O[C@@H]6CO)O[C@@H]5CO)O[C@@H]4CO)O[C@@H]3CO` [β-cyclodextrin], for which, in assay [1], the “formation of the propagative organs” value was “inhibits the formation of the propagative organs”. Moreover, the results for the inhibition at 200 µg/mL in assay [2] (β-cyclodextrin 200 μg/ml), in assay [3] (β-cyclodextrin 200 μg/ml) and in assay [4] (β-cyclodextrin 200 μg/ml) were 7%, 3% and 12%, respectively. Also, the inhibition (usually the percentage by which the read-out fell short of the control) at 400 µg/mL was determined as 10% in assay [2] (β-cyclodextrin 400 μg/ml), 6% in assay [3] (β-cyclodextrin 400 μg/ml) and 12% in assay [4] (β-cyclodextrin 400 μg/ml). Further, the inhibition at 1500 µg/mL in assay [2] (β-cyclodextrin 1500 μg/ml) is 12%; in assay [3] (β-cyclodextrin 1500 μg/ml), 17%; in assay [4] (β-cyclodextrin 1500 μg/ml), 14%. Further, the inhibition at 3000 µg/mL in assay [2] (β-cyclodextrin 3000 μg/ml) turned out to be 14%; in assay [3] (β-cyclodextrin 3000 μg/ml) it was 19%; in assay [4] (β-cyclodextrin 3000 μg/ml), 16%.
